Structures can show the parent of a compound that is named as a salt.
Assays:
[1] = tested on: stress-induced irritable bowel syndrome in rats; assay: Stress-induced irritable bowel syndrome in rats; assay type: in vivo, rat (Sprague-Dawley); settings: for stool output: 30 min before stress, 6-h collection period; for % reduction (stool output): vs control (0 mg/kg), (1.0-T/C) × 100
Description: Male Sprague-Dawley rats (200-350 g, Harlan Sprague-Dawley, Indianapolis, Ind.) were housed in hanging wire cages in a temperature- and humidity-controlled room with a 12hour light/dark cycle; the animals were fasted overnight (unless non-fasted rats were utilized in experiments involving PO administration) and allowed free access to water. Animal care and experimental procedures were approved by the Institutional Animal Care and Use Committee. A typical experiment involved 20 rats: 5 untreated controls and 5 pretreated with polyamine analogues at each of three doses as either a SC injection or a PO gavage 30 min prior to commencement of the stress. All animals were then housed in individual polycarbonate cages containing a clear 70×50 mm Pyrex crystallization dish inverted in the center. To begin the stress, water was added to each cage to within 0.5 cm of the top of the Pyrex dish. The fecal output of the animals was recorded at 30-min intervals for a 6-h period, during which they received no food or water. Stool output was expressed as the number of fecal pellets excreted over the 6-h collection period. Percent reduction was calculated by dividing the mean value from the treated animals (T) by the mean value from the control animals (C), subtracting the resulting quotient from 1.0, and multiplying by 100 [i.e., (1.0−T/C)×100].

[2] = tested on: castor oil-induced diarrhea in rats; assay: Castor oil-induced diarrhea in rats; assay type: in vivo, rat (Sprague-Dawley); settings: for weight loss: 30 min before castor oil 5 mL/kg, 6-h period; for stool output: 30 min before castor oil, 6-h collection period; for % reduction (weight loss) / % reduction (stool output): vs control (0 mg/kg); for % reduction (weight loss): (1.0-T/C) × 100
Description: Male Sprague-Dawley rats (350-400 g, Harlan Sprague-Dawley, Indianapolis, Ind.) were fasted overnight in hanging wire cages and allowed free access to water. A typical experiment involved 20 rats: 5 untreated controls and 5 pretreated with polyamine analogues at each of three doses (typically equivalent on a molar basis to 1, 5, 10, or 25 mg/kg of DEHSPM) as either a sc injection or a po gavage 30 min prior to castor oil. All animals were then challenged with castor oil (purchased from a local drugstore) as a gastric gavage of 5 mL/kg of body weight at t=0 and monitored for the onset and duration of diarrhea at 30-min intervals for a 6-h period during which they received no food or water (Eaker, E. Y.; Bixler, G. B.; Mathias, J. R., J. Pharm Exp. Ther. 1988, 246, 786-789). Onset of diarrhea for the control rats was between 30 and 90 min and lasted for at least 6 h. The animal weight and stool weight were recorded at 2, 4, and 6 h.

small intestine = settings: rats; previously reported; cited from earlier work
[3] = dog; compared with 2-3 weeks in mice; cited from earlier work
[4] = mice; HSPM formed by N-deethylation of DEHSPM; cited from earlier work
[5] = sc 0.03125 mg/kg (0.0726 μmol/kg)

For `CCNCCCN[C@H]1CC[C@H](NCCCNCC)CC1` [CHX(3,4,3)-trans, N,N′-Bis[3-(ethylamino)propyl]-trans-1,4-cyclohexanediamine tetrahydrochloride], the “fecal output after oral administration (in words)” value ([1]; oral, doses ≧5 mg/kg, P≦0.001) was “diminished fecal output”, the “stool output” value [1, 5] was 5.4 ± 2.1 number of fecal pellets and the “% reduction (stool output)” value ([1]; sc 0.03125 mg/kg) was 52.2%. For the same compound, the “stool output” value ([1]; sc 0.0625 mg/kg (0.145 μmol/kg)) was 2.2 ± 1.3 number of fecal pellets, the “% reduction (stool output)” value ([1]; sc 0.0625 mg/kg) was 80.5% and the “stool output” value ([1]; sc 0.125 mg/kg (0.29 μmol/kg)) was 0.6 ± 0.9 number of fecal pellets. The “% reduction (stool output)” value ([1]; sc 0.125 mg/kg) was 94.7%, the “stool output” value ([1]; sc 0.25 mg/kg (0.58 μmol/kg)) was 0 ± 0 number of fecal pellets and the “% reduction (stool output)” value ([1]; sc 0.25 mg/kg) was 100%. The “stool output” value ([1]; sc 0.5 mg/kg (1.16 μmol/kg)) was 0 ± 0 number of fecal pellets, the “% reduction (stool output)” value ([1]; sc 0.5 mg/kg) was 100% and the “stool output” value ([1]; sc 0.99 mg/kg (2.3 μmol/kg)) was 0 ± 0 number of fecal pellets. The “% reduction (stool output)” value ([1]; sc 0.99 mg/kg) was 100%, the “reduction in fecal output (in words)” value ([1]; sc, doses ranging from 0.03 mg/kg to 0.99 mg/kg, all dose levels, P<0.001) was “significant reduction in fecal output” and the weight loss ([2]; sc 0.0078 mg/kg (0.0181 μmol/kg)) was 8.8 ± 1.2 g of weight lost per 350 g of rat weight. For the same compound, the stool output ([2]; sc 0.0078 mg/kg) was 3.6 ± 1.3 g of stool excreted per 350 g of rat weight, the “% reduction (weight loss)” value ([2]; sc 0.0078 mg/kg) was 24% and the weight loss ([2]; sc 0.0156 mg/kg (0.036 μmol/kg)) was 3.1 ± 1.2 g of weight lost per 350 g of rat weight. The stool output ([2]; sc 0.0156 mg/kg) was 0.4 ± 0.9 g of stool excreted per 350 g of rat weight, the “% reduction (stool output)” value ([2]; sc 0.0156 mg/kg) was 92% and the “% reduction (weight loss)” value ([2]; sc 0.0156 mg/kg) was 73%. For the same compound, the weight loss [2, 5] was 4.2 ± 1.7 g of weight lost per 350 g of rat weight, the stool output ([2]; sc 0.03125 mg/kg) was 0 ± 0 g of stool excreted per 350 g of rat weight and the “% reduction (stool output)” value ([2]; sc 0.03125 mg/kg) was 100%. For the same compound, the “% reduction (weight loss)” value ([2]; sc 0.03125 mg/kg) was 64%, the weight loss ([2]; sc 0.125 mg/kg (0.29 μmol/kg)) was 4.1 ± 0.7 g of weight lost per 350 g of rat weight and the stool output ([2]; sc 0.125 mg/kg) was 0 ± 0 g of stool excreted per 350 g of rat weight. For the same compound, the “% reduction (stool output)” value ([2]; sc 0.125 mg/kg) was 100%, the “% reduction (weight loss)” value ([2]; sc 0.125 mg/kg) was 65% and the weight loss ([2]; sc 0.25 mg/kg (0.58 μmol/kg)) was 2.7 ± 0.7 g of weight lost per 350 g of rat weight. The stool output ([2]; sc 0.25 mg/kg) was 0 ± 0 g of stool excreted per 350 g of rat weight, the “% reduction (stool output)” value ([2]; sc 0.25 mg/kg) was 100% and the “% reduction (weight loss)” value ([2]; sc 0.25 mg/kg) was 77%. For the same compound, the weight loss ([2]; sc 0.5 mg/kg (1.16 μmol/kg)) was 2.9 ± 0.1 g of weight lost per 350 g of rat weight, the stool output ([2]; sc 0.5 mg/kg) was 0 ± 0 g of stool excreted per 350 g of rat weight and the “% reduction (stool output)” value ([2]; sc 0.5 mg/kg) was 100%. For the same compound, the “% reduction (weight loss)” value ([2]; sc 0.5 mg/kg) was 75%, the weight loss ([2]; sc 0.625 mg/kg (0.145 μmol/kg)) was 3.7 ± 0.8 g of weight lost per 350 g of rat weight and the stool output ([2]; sc 0.625 mg/kg (0.145 μmol/kg)) was 0 ± 0 g of stool excreted per 350 g of rat weight. For the same compound, the “% reduction (stool output)” value ([2]; sc 0.625 mg/kg (0.145 μmol/kg)) was 100%, the “% reduction (weight loss)” value ([2]; sc 0.625 mg/kg (0.145 μmol/kg)) was 68% and the weight loss ([2]; sc 0.99 mg/kg (2.3 μmol/kg)) was 2.7 ± 1.3 g of weight lost per 350 g of rat weight. For the same compound, the stool output ([2]; sc 0.99 mg/kg) was 0 ± 0 g of stool excreted per 350 g of rat weight, the “% reduction (stool output)” value ([2]; sc 0.99 mg/kg) was 100% and the “% reduction (weight loss)” value ([2]; sc 0.99 mg/kg) was 77%. For the same compound, the weight loss ([2]; sc 4.97 mg/kg (11.6 μmol/kg)) was 1.6 ± 1.1 g of weight lost per 350 g of rat weight, the stool output ([2]; sc 4.97 mg/kg) was 0 ± 0 g of stool excreted per 350 g of rat weight and the “% reduction (stool output)” value ([2]; sc 4.97 mg/kg) was 100%. For the same compound, the “% reduction (weight loss)” value ([2]; sc 4.97 mg/kg) was 86%, the weight loss ([2]; sc 24.87 mg/kg (57.8 μmol/kg)) was 0.8 ± 0.7 g of weight lost per 350 g of rat weight and the stool output ([2]; sc 24.87 mg/kg) was 0 ± 0 g of stool excreted per 350 g of rat weight. For the same compound, the “% reduction (stool output)” value ([2]; sc 24.87 mg/kg) was 100%, the “% reduction (weight loss)” value ([2]; sc 24.87 mg/kg) was 93% and the “stool output relative to controls (in words)” value ([2]; sc doses of 0.0156 mg/kg to 24.9 mg/kg, P<0.001 for all doses) was “significantly decreased stool output”. For the same compound, the “reduction in weight loss (in words)” value ([2]; sc, doses ranging from 0.0078 mg/kg to 24.9 mg/kg, all dose levels, P<0.005 to P<0.001) was “significant reduction in weight loss”.

For `CCNCCCCNCCCCNCCCCNCC` [DEHSPM, N^1, N^14 diethylhomospermine], the “myoelectric activity and transit of the small intestine (in words)” value (small intestine) is listed as “inhibited”.

In the case of `NCCCCNCCCCNCCCCN` [HSPM, homospermine], the “half life (in words)” value [3] is given as “even longer” and the half life [4] is given as 2-3 weeks.

Reference: US6399662B1, “Method and composition for the treatment of diarrhea and gastrointestinal spasms” (University of Florida, priority 2000, dated 2002)
